Source: the supplement of paper PMC10733146

Assays:
Assay in all cases: viability relative to DMSO control (fraction); higher = less drug effect (more viable cells)
Settings in all cases: 48 h
[1] = test system: primary AML patient cells (S085)
In short: (§1)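 The cells were primary mononuclear tumour cells, either fresh or cryopreserved, isolated by Ficoll from blood or bone marrow or derived from processed lymph node. Each well of a 384-well plate received 4 × 10^4 cells onto compounds pre-plated at five concentrations, with one well per concentration. The medium was RPMI-1640 with penicillin/streptomycin, L-glutamine and human serum, and plates stood at 37 °C and 5% CO2 for 48 h. Viability is reported as CellTiter-Glo luminescence relative to the median of 16 inner DMSO wells.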

[2] = test system: primary FL patient cells (S087)
In short: as §1

[3] = test system: primary MCL patient cells (S053)
In short: as §1

[4] = test system: primary AML patient cells (S019)
In short: as §1

[5] = test system: primary B-PLL patient cells (S016)
In short: as §1

[6] = test system: primary T-PLL patient cells (S008)
In short: as §1

[7] = test system: primary AML patient cells (S009)
In short: as §1

[8] = test system: primary FL patient cells (S022)
In short: as §1

[9] = test system: primary AML patient cells (S091)
In short: as §1

[10] = test system: primary AML patient cells (S011)
In short: as §1

[11] = test system: primary AML patient cells (S025)
In short: as §1

[12] = test system: primary AML patient cells (S012)
In short: as §1

[13] = test system: primary MCL patient cells (S041)
In short: as §1

[14] = test system: primary AML patient cells (S017)
In short: as §1

[15] = test system: primary BL patient cells (S005)
In short: as §1

[16] = test system: primary AML patient cells (S021)
In short: as §1

[17] = test system: primary AML patient cells (S037)
In short: as §1

[18] = test system: primary AML patient cells (S081)
In short: as §1

[19] = test system: primary AML patient cells (S002)
In short: as §1

[20] = test system: primary MCL patient cells (S068)
In short: as §1

Nc1nc(=S)c2[nH]cnc2[nH]1 [Thioguanin]
viability ([1]; 0.024 µM): 1.03 | viability ([1]; 0.12 µM): 1 | viability ([1]; 0.6 µM): 0.714 | viability ([1]; 3 µM): 0.402 | viability ([1]; 15 µM): 0.24 | viability ([2]; 0.024 µM): 0.998 | viability ([2]; 0.12 µM): 0.952 | viability ([2]; 0.6 µM): 0.804 | viability ([2]; 3 µM): 0.688 | viability ([2]; 15 µM): 0.645 | viability ([3]; 0.024 µM): 0.893 | viability ([3]; 0.12 µM): 0.699 | viability ([3]; 0.6 µM): 0.45 | viability ([3]; 3 µM): 0.25 | viability ([3]; 15 µM): 0.173 | viability ([4]; 0.024 µM): 1.04 | viability ([4]; 0.12 µM): 1.18 | viability ([4]; 0.6 µM): 0.65 | viability ([4]; 3 µM): 0.497 | viability ([4]; 15 µM): 0.57 | viability ([5]; 0.024 µM): 0.919 | viability ([5]; 0.12 µM): 0.71 | viability ([5]; 0.6 µM): 0.403 | viability ([5]; 3 µM): 0.23 | viability ([5]; 15 µM): 0.212 | viability ([6]; 0.024 µM): 1.02 | viability ([6]; 0.12 µM): 0.986 | viability ([6]; 0.6 µM): 0.957 | viability ([6]; 3 µM): 0.9 | viability ([6]; 15 µM): 0.629 | viability ([7]; 0.024 µM): 1.14 | viability ([7]; 0.12 µM): 1.09 | viability ([7]; 0.6 µM): 1.07 | viability ([7]; 3 µM): 0.696 | viability ([7]; 15 µM): 0.489 | viability ([8]; 0.024 µM): 0.991 | viability ([8]; 0.12 µM): 0.955 | viability ([8]; 0.6 µM): 0.835 | viability ([8]; 3 µM): 0.622 | viability ([8]; 15 µM): 0.483 | viability ([9]; 0.024 µM): 0.859 | viability ([9]; 0.12 µM): 0.817 | viability ([9]; 0.6 µM): 0.919 | viability ([9]; 3 µM): 0.6 | viability ([9]; 15 µM): 0.254 | viability ([10]; 0.024 µM): 1.02 | viability ([10]; 0.12 µM): 0.977 | viability ([10]; 0.6 µM): 0.658 | viability ([10]; 3 µM): 0.339 | viability ([10]; 15 µM): 0.239 | viability ([11]; 0.024 µM): 0.945 | viability ([11]; 0.12 µM): 0.751 | viability ([11]; 0.6 µM): 0.615 | viability ([11]; 3 µM): 0.279 | viability ([11]; 15 µM): 0.152 | viability ([12]; 0.024 µM): 0.99 | viability ([12]; 0.12 µM): 1 | viability ([12]; 0.6 µM): 0.946 | viability ([12]; 3 µM): 0.751 | viability ([12]; 15 µM): 0.513 | viability ([13]; 0.024 µM): 1.02 | viability ([13]; 0.12 µM): 0.879 | viability ([13]; 0.6 µM): 0.681 | viability ([13]; 3 µM): 0.515 | viability ([13]; 15 µM): 0.388 | viability ([14]; 0.024 µM): 0.97 | viability ([14]; 0.12 µM): 1.05 | viability ([14]; 0.6 µM): 0.785 | viability ([14]; 3 µM): 0.561 | viability ([14]; 15 µM): 0.38 | viability ([15]; 0.024 µM): 0.938 | viability ([15]; 0.12 µM): 0.665 | viability ([15]; 0.6 µM): 0.823 | viability ([15]; 3 µM): 0.673 | viability ([15]; 15 µM): 0.261 | viability ([16]; 0.024 µM): 1.11 | viability ([16]; 0.12 µM): 0.984 | viability ([16]; 0.6 µM): 0.918 | viability ([16]; 3 µM): 0.672 | viability ([16]; 15 µM): 0.435 | viability ([17]; 0.024 µM): 1 | viability ([17]; 0.12 µM): 0.937 | viability ([17]; 0.6 µM): 0.701 | viability ([17]; 3 µM): 0.481 | viability ([17]; 15 µM): 0.395 | viability ([18]; 0.024 µM): 1.09 | viability ([18]; 0.12 µM): 0.899 | viability ([18]; 0.6 µM): 0.621 | viability ([18]; 3 µM): 0.465 | viability ([18]; 15 µM): 0.319 | viability ([19]; 0.024 µM): 1.1 | viability ([19]; 0.12 µM): 1.09 | viability ([19]; 0.6 µM): 0.949 | viability ([19]; 3 µM): 0.66 | viability ([19]; 15 µM): 0.446 | viability ([20]; 0.024 µM): 0.982 | viability ([20]; 0.12 µM): 0.892 | viability ([20]; 0.6 µM): 0.83 | viability ([20]; 3 µM): 0.6 | viability ([20]; 15 µM): 0.299
